Source: ChEMBL document CHEMBL4118137, “Design, synthesis and antineoplastic activity of novel hybrids of podophyllotoxin and indirubin against human leukaemia cancer cells as multifunctional anti-MDR agents” (Bioorg Med Chem Lett, 2018)
Calls of active or inactive are those of the source. The rule behind the calls is not given here.

Experiments:
[1] = test system: K562/VCR; test: Antiproliferative activity against human K562/VCR cells after 72 hrs by CCK8 assay; format: functional, cell-based
[2] = test system: K562; test: Antiproliferative activity against human K562 cells after 72 hrs by CCK8 assay; format: functional, cell-based; conditions: K562, 72 h
[3] = Resistance factor, ratio of IC50 for human K562/VCR cells to IC50 for human K562 cells; format: functional
[4] = test system: K562/VCR; test: Cell cycle arrest in human K562/VCR cells assessed as accumulation at G1 phase at 0.05 uM after 48 hrs by propidium iodide staining-based flow cytometric method (reference value: 46.20%); format: functional
[5] = test system: K562/VCR; test: Cell cycle arrest in human K562/VCR cells assessed as accumulation at S phase at 0.05 uM after 48 hrs by propidium iodide staining-based flow cytometric method (reference value: 46.02%); format: functional
[6] = test system: K562/VCR; test: Cell cycle arrest in human K562/VCR cells assessed as accumulation at G2 phase at 0.05 uM after 48 hrs by propidium iodide staining-based flow cytometric method (reference value: 7.78%); format: functional
[7] = test system: K562/VCR; test: Cell cycle arrest in human K562/VCR cells assessed as accumulation at G1 phase at 0.1 uM after 48 hrs by propidium iodide staining-based flow cytometric method (reference value: 46.20%); format: functional
[8] = test system: K562/VCR; test: Cell cycle arrest in human K562/VCR cells assessed as accumulation at S phase at 0.1 uM after 48 hrs by propidium iodide staining-based flow cytometric method (reference value: 46.02%); format: functional
[9] = test system: K562/VCR; test: Cell cycle arrest in human K562/VCR cells assessed as accumulation at G2 phase at 0.1 uM after 48 hrs by propidium iodide staining-based flow cytometric method (reference value: 7.78%); format: functional
[10] = test system: K562/VCR; test: Induction of apoptosis in human K562/VCR cells assessed as early apoptotic cells at 0.05 uM after 48 hrs by annexin-V-FITC/propidium iodide staining-based flow cytometric method (reference value: 6.90%); format: functional
[11] = test system: K562/VCR; test: Induction of apoptosis in human K562/VCR cells assessed as late apoptotic cells at 0.05 uM after 48 hrs by annexin-V-FITC/propidium iodide staining-based flow cytometric method (reference value: 1.90%); format: functional
[12] = test system: K562/VCR; test: Induction of apoptosis in human K562/VCR cells assessed as necrotic cells at 0.05 uM after 48 hrs by annexin-V-FITC/propidium iodide staining-based flow cytometric method (reference value: 0.15%); format: functional
[13] = test system: K562/VCR; test: Induction of apoptosis in human K562/VCR cells assessed as viable cells at 0.05 uM after 48 hrs by annexin-V-FITC/propidium iodide staining-based flow cytometric method (reference value: 91.05%); format: functional; conditions: read-out: Activity
[14] = test system: K562/VCR; test: Induction of apoptosis in human K562/VCR cells assessed as early apoptotic cells at 0.1 uM after 48 hrs by annexin-V-FITC/propidium iodide staining-based flow cytometric method (reference value: 6.90%); format: functional
[15] = test system: K562/VCR; test: Induction of apoptosis in human K562/VCR cells assessed as late apoptotic cells at 0.1 uM after 48 hrs by annexin-V-FITC/propidium iodide staining-based flow cytometric method (reference value: 1.90%); format: functional
[16] = test system: K562/VCR; test: Induction of apoptosis in human K562/VCR cells assessed as necrotic cells at 0.1 uM after 48 hrs by annexin-V-FITC/propidium iodide staining-based flow cytometric method (reference value: 0.15%); format: functional
[17] = test system: K562/VCR; test: Induction of apoptosis in human K562/VCR cells assessed as viable cells at 0.1 uM after 48 hrs by annexin-V-FITC/propidium iodide staining-based flow cytometric method (reference value: 91.05%); format: functional; conditions: read-out: Activity
[18] = test system: K562/VCR; test: Reduction in mitochondrial membrane potential in human K562/VCR cells at 0.1 uM after 48 hrs by JC1 probe-based flow cytometric method (reference value: 2.65%); format: functional; set-up: scale not given: the % may be the effect or the level left
[19] = test system: K562/VCR; test: Reduction in mitochondrial membrane potential in human K562/VCR cells at 0.05 uM after 48 hrs by JC1 probe-based flow cytometric method (reference value: 2.65%); format: functional; set-up: scale not given: the % may be the effect or the level left
[20] = species on record: Homo sapiens; test: Inhibition of alpha-tubulin polymerization in human K562/VCR cells assessed as disruption of microtubule organization at 0.05 to 0.1 uM after 24 hrs by DAPI staining-based immunofluorescence assay; format: cell-based
[21] = test system: K562/VCR; test: Induction of reactive oxygen species formation in human K562/VCR cells at 0.05 uM after 24 hrs by DCFH-DA staining-based flow cytometric method (reference value: 0.41%); format: functional
[22] = test system: K562/VCR; test: Induction of reactive oxygen species formation in human K562/VCR cells at 0.1 uM after 24 hrs by DCFH-DA staining-based flow cytometric method (reference value: 0.41%); format: functional
[23] = biological target: T1, c-Jun N-terminal kinase, JNK (Homo sapiens) (UniProt P45983+P53779+P45984); test: Induction of JNK phosphorylation in human K562/VCR cells at 0.05 uM after 48 hrs by Western blot method relative to beta-actin; format: cell-based
[24] = biological target: T1, c-Jun N-terminal kinase, JNK (Homo sapiens); test: Induction of JNK phosphorylation in human K562/VCR cells at 0.1 uM after 48 hrs by Western blot method relative to beta-actin; format: cell-based
[25] = biological target: RAC-alpha serine/threonine-protein kinase (Homo sapiens) (UniProt P31749); test: Inhibition of AKT phosphorylation in human K562/VCR cells at 0.05 uM after 48 hrs by Western blot method relative to beta-actin; format: cell-based
Sequence of RAC-alpha serine/threonine-protein kinase (Homo sapiens) (P31749 whole entry): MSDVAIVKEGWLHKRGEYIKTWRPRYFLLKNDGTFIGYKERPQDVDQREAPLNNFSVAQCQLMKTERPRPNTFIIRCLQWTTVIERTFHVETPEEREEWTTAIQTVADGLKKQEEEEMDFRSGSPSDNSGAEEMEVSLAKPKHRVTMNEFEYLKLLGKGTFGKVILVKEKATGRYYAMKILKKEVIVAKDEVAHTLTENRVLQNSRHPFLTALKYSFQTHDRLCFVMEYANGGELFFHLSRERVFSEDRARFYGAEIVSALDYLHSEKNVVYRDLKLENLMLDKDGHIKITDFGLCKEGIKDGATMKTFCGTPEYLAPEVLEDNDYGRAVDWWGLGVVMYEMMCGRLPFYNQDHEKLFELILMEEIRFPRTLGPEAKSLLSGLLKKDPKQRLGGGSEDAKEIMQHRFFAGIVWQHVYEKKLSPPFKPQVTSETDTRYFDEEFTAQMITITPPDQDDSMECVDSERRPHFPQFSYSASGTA

[26] = biological target: RAC-alpha serine/threonine-protein kinase (Homo sapiens) (UniProt P31749); test: Inhibition of AKT phosphorylation in human K562/VCR cells at 0.1 uM after 48 hrs by Western blot method relative to beta-actin; format: cell-based
[27] = test system: K562/VCR; test: Induction of apoptosis in human K562/VCR cells assessed as downregulation of CDK1 expression at 0.05 uM after 48 hrs by Western blot method relative to beta-actin; format: functional
[28] = test system: K562/VCR; test: Induction of apoptosis in human K562/VCR cells assessed as downregulation of CDK1 expression at 0.1 uM after 48 hrs by Western blot method relative to beta-actin; format: functional
[29] = test system: K562/VCR; test: Induction of apoptosis in human K562/VCR cells assessed as downregulation of CDK2 expression at 0.05 uM after 48 hrs by Western blot method relative to beta-actin; format: functional
[30] = test system: K562/VCR; test: Induction of apoptosis in human K562/VCR cells assessed as downregulation of CDK2 expression at 0.1 uM after 48 hrs by Western blot method relative to beta-actin; format: functional
[31] = test system: K562/VCR; test: Induction of apoptosis in human K562/VCR cells assessed as upregulation of cleaved PARP expression at 0.05 uM after 48 hrs by Western blot method relative to beta-actin; format: functional
[32] = test system: K562/VCR; test: Induction of apoptosis in human K562/VCR cells assessed as upregulation of cleaved PARP expression at 0.1 uM after 48 hrs by Western blot method relative to beta-actin; format: functional
[33] = test system: K562/VCR; test: Downregulation of P-gp expression in human K562/VCR cells at 0.05 uM after 48 hrs by Western blot method relative to beta-actin; format: functional
[34] = test system: K562/VCR; test: Downregulation of P-gp expression in human K562/VCR cells at 0.1 uM after 48 hrs by Western blot method relative to beta-actin; format: functional
[35] = test system: K562/VCR; test: Downregulation of MRP-1 expression in human K562/VCR cells at 0.05 uM after 48 hrs by Western blot method relative to beta-actin; format: functional
[36] = test system: K562/VCR; test: Downregulation of MRP-1 expression in human K562/VCR cells at 0.1 uM after 48 hrs by Western blot method relative to beta-actin; format: functional
[37] = test system: K562/VCR; test: Induction of autophagy in human K562/VCR cells assessed as upregulation of beclin-1 expression at 0.05 uM after 48 hrs by Western blot method relative to beta-actin; format: functional
[38] = test system: K562/VCR; test: Induction of autophagy in human K562/VCR cells assessed as upregulation of beclin-1 expression at 0.1 uM after 48 hrs by Western blot method relative to beta-actin; format: functional
[39] = test system: K562/VCR; test: Induction of autophagy in human K562/VCR cells assessed as upregulation of LC3-2 expression at 0.05 uM after 48 hrs by Western blot method relative to beta-actin; format: functional
[40] = test system: K562/VCR; test: Induction of autophagy in human K562/VCR cells assessed as upregulation of LC3-2 expression at 0.1 uM after 48 hrs by Western blot method relative to beta-actin; format: functional
[41] = test system: K562/Adr; test: Antiproliferative activity against human K562/ADR cells after 72 hrs by CCK8 assay; format: functional, cell-based
[42] = species on record: Homo sapiens; test: Inhibition of alpha-tubulin polymerization in human K562/VCR cells assessed as disruption of microtubule organization at 0.05 uM after 24 hrs by DAPI staining-based immunofluorescence assay; format: cell-based
[43] = test system: HL-60; test: Cytotoxicity against human HL60 cells; format: functional, cell-based

COc1cc([C@@H]2c3cc4c(cc3[C@@H](O[C@@H]3O[C@@H]5CO[C@@H](C)O[C@H]5[C@H](O)[C@H]3O)[C@H]3COC(=O)[C@H]23)OCO4)cc(OC)c1O [ETOPOSIDE]
IC50 [1]: 11800 nM
IC50 [2]: 764 nM
Ratio IC50 [3]: 15.49

COc1cc([C@@H]2c3cc4c(cc3[C@H](OC(=O)CN3C(=O)/C(=C5\Nc6ccccc6C5=O)c5ccccc53)[C@H]3COC(=O)[C@H]23)OCO4)cc(OC)c1OC
IC50 [1]: 76 nM
IC50 [2]: 34 nM
Ratio IC50 [3]: 2.23
Activity [4]: 23.26%
Activity [5]: 29.81%
Activity [6]: 46.93%
Activity [7]: 17.33%
Activity [8]: 25.7%
Activity [9]: 56.97%
Activity [10]: 13.48%
Activity [11]: 9.61%
Activity [12]: 0.07%
viability at 0.05 µM [13]: 76.8%
Activity [14]: 28.58%
Activity [15]: 18.91%
Activity [16]: 0.1%
viability at 0.1 µM [17]: 52.4%
Activity [18]: 40.38%
Activity [19]: 19.44%
inhibition [20]: Active
Activity [21]: 24.27%
Activity [22]: 39.84%
fold change (FC) [23]: 0.7
fold change (FC) [24]: 0.84
fold change (FC) [25]: 0.6
fold change (FC) [26]: 0.43
fold change (FC) [27]: 0.44
fold change (FC) [28]: 0.32
fold change (FC) [29]: 0.44
fold change (FC) [30]: 0.36
fold change (FC) [31]: 0.46
fold change (FC) [32]: 0.56
fold change (FC) [33]: 0.4
fold change (FC) [34]: 0.33
fold change (FC) [35]: 0.31
fold change (FC) [36]: 0.24
fold change (FC) [37]: 0.52
fold change (FC) [38]: 0.6
fold change (FC) [39]: 0.78
fold change (FC) [40]: 0.63

COc1cc([C@@H]2c3cc4c(cc3[C@H](OC(=O)CCCCCN3C(=O)/C(=C5\Nc6ccccc6C5=O)c5ccccc53)[C@H]3COC(=O)[C@H]23)OCO4)cc(OC)c1OC
IC50 [1]: 85700 nM
IC50 [2]: 17000 nM
Ratio IC50 [3]: 5.02

CC[C@]1(O)C[C@H]2CN(CCc3c([nH]c4ccccc34)[C@@](C(=O)OC)(c3cc4c(cc3OC)N(C=O)[C@H]3[C@@](O)(C(=O)OC)[C@H](OC(C)=O)[C@]5(CC)C=CCN6CC[C@]43[C@@H]65)C2)C1 [VINCRISTINE]
IC50 [1]: 4740 nM
IC50 [2]: 178 nM
Ratio IC50 [3]: 26.61

O=C1Nc2ccccc2/C1=C1/Nc2ccccc2C1=O [INDIRUBIN]
IC50 [1]: > 100000 nM
IC50 [2]: > 100000 nM

COc1cc([C@@H]2c3cc4c(cc3[C@H](OC(=O)CN3C(=O)C(=O)c5c(Br)cccc53)[C@H]3COC(=O)[C@H]23)OCO4)cc(OC)c1OC
IC50 [41]: 67 nM

COc1cc([C@@H]2c3cc4c(cc3[C@H](O)[C@H]3COC(=O)[C@H]23)OCO4)cc(OC)c1OC [PODOFILOX]
IC50 [1]: 50 nM
IC50 [2]: 25 nM
Ratio IC50 [3]: 2
Activity [4]: 17.81%
Activity [5]: 22.9%
Activity [6]: 59.28%
Activity [10]: 28.1%
Activity [11]: 23.21%
Activity [12]: 0.08%
viability at 0.05 µM [13]: 48.6%
Activity [18]: 52.5%
inhibition [42]: Active
Activity [21]: 45.54%
fold change (FC) [23]: 1.04
fold change (FC) [25]: 0.33
fold change (FC) [27]: 0.27
fold change (FC) [29]: 0.37
fold change (FC) [31]: 0.61
fold change (FC) [33]: 0.27
fold change (FC) [35]: 0.22
fold change (FC) [37]: 0.78
fold change (FC) [39]: 0.65

CN(C)CCN1C(=O)/C(=C2\Nc3ccccc3C2=O)c2ccccc21
IC50 [43]: 3560 nM

COc1cc([C@@H]2c3cc4c(cc3[C@H](OC(=O)CCN3C(=O)/C(=C5\Nc6ccccc6C5=O)c5ccccc53)[C@H]3COC(=O)[C@H]23)OCO4)cc(OC)c1OC
IC50 [1]: 2140 nM
IC50 [2]: 1300 nM
Ratio IC50 [3]: 1.64

COc1cc([C@@H]2c3cc4c(cc3[C@H](OC(=O)CCCN3C(=O)/C(=C5\Nc6ccccc6C5=O)c5ccccc53)[C@H]3COC(=O)[C@H]23)OCO4)cc(OC)c1OC
IC50 [1]: 1750 nM
IC50 [2]: 1790 nM
Ratio IC50 [3]: 0.97
